Data published in patent US11957324B2, “Device and method for preparing and administering one-component fibrin sealant” (Ethicon, Inc., priority 2014, dated 2024).
Each block holds one compound with its values, some of them ahead of it.

How the values were obtained:
thrombin = thrombin (Homo sapiens, UniProt P00734); details: cited from earlier work
fibrin [1] = target: T1, fibrin (Homo sapiens, UniProt P02671+P02675+P02679); assay: Rate of fibrin clot formation at different GPRP concentrations, cessation of flow upon inversion of the tube; type: biochemical; details: 3% fibrin, thrombin 100 IU/ml
Procedure: In the following experiment, the effect of adjusting the concentration of GPRP (SEQ ID NO: 1) inhibitor on fibrin clot formation rate was tested. GPRP (SEQ ID NO: 1) at different concentrations (0.1 mM, 0.2 mM, 0.5 mM, 1 mM, 1.5 mM, 2 mM, 3 mM, 4 mM, and 5 mM) was added to a fibrinogen containing solution (a fixed concentration of 3% w/v, prepared by diluting the BAC2 component of EVICEL® in 40 mM citrate buffer).
To generate fibrin monomers, dimers and/or oligomers, thrombin was added to the mixture; a 10% volume of the thrombin component of EVICEL® was added to yield a final concentration of 100 international units/ml (IU/ml). The rate of fibrin clot formation was measured by cessation of flow of the mixture upon inversion of the tube.

fibrin [2] = target: T1, fibrin; assay: as above; type: biochemical; details: above molar ratio 340:1 GPRP:fibrin (40 mM GPRP at tested fibrinogen concentration)
fibrin clot formation = details: CaCl2 between about 8 mM and about 30 mM; 5-fold zymogen, 3.5% (w/v) fibrinogen, tissue factor and phospholipids
Procedure: In the following experiment, the concentration range of calcium ion (CaCl2 concentration) as an inducer to accelerate fibrin clot formation in the zymogen (PPSB concentrate) and fibrinogen comprising mixture (prepared from BAC2) described in Example 1 was explored. In this Example, the zymogen mixture was prepared at a concentration of 10-fold (10 IU FII/ml), as compared to plasma, and mixed in the same volumetric ratio with the same fibrinogen solution as above (final 5-fold concentrations of zymogen, compared to plasma, and 3.5% (w/v) fibrinogen). No EDTA was used. In this experiment, initiation of clotting was performed using a calcium-depleted PT (prothrombin time) reagent comprising tissue factor and phospholipids; a clotting initiator that is typically present in bleeding/injured surfaces and on the surface of activated platelets, respectively. By using both tissue factor and phospholipids, a bleeding surface is simulated. CaCl2 at increasing concentrations was supplemented to the mixture and the clotting time was measured using a Start4 clotting analyzer (Diagnostica Stago).

T1 sequence (P02671 36-644 isoform P02671-2 limits assumed): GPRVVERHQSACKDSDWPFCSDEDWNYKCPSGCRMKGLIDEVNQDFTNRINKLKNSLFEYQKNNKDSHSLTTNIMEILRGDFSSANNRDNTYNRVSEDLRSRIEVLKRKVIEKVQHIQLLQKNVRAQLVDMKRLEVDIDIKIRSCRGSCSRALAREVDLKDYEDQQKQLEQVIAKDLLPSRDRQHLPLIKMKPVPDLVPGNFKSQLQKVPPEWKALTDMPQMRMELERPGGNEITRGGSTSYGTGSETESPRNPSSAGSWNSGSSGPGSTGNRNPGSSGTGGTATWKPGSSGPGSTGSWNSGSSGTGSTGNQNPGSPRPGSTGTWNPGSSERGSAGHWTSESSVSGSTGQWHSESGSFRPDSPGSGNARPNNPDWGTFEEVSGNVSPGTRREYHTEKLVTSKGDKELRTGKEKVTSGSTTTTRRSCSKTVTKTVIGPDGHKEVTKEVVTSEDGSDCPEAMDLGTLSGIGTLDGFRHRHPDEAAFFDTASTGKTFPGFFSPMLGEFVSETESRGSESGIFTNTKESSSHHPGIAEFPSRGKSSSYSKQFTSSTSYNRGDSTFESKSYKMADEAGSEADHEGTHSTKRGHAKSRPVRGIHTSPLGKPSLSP
T1 sequence (P02675 45-491 limits assumed): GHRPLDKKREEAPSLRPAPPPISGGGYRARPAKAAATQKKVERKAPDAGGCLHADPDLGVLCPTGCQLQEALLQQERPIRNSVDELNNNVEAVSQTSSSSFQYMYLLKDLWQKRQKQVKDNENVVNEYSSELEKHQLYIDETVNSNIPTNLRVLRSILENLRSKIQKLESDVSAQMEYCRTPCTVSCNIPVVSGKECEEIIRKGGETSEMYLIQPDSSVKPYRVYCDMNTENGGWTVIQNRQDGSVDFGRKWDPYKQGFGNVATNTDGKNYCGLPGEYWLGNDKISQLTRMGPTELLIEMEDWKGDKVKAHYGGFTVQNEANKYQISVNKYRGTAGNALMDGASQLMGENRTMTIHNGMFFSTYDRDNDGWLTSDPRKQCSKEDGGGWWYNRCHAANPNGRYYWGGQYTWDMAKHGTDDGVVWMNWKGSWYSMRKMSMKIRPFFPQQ
T1 sequence (P02679 27-437 isoform P02679-2 limits assumed): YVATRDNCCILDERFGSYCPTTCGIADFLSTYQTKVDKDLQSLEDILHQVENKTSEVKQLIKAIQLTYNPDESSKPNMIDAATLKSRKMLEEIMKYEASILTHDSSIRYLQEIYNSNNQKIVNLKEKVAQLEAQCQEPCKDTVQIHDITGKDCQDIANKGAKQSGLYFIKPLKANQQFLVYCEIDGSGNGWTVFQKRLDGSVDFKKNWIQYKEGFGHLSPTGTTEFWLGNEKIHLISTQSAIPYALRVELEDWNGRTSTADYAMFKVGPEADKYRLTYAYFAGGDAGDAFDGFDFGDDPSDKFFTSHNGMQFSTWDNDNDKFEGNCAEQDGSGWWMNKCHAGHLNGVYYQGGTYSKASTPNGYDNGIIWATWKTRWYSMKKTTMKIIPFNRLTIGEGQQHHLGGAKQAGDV

Compound: hirudin
binds thrombin (affinity) (thrombin): picoM range

Time to clot (fibrin [1]; 0.1 mM GPRP): 5 s | Time to clot (fibrin [1]; 0.2 mM GPRP): 7 s | Time to clot (fibrin [1]; 0.5 mM GPRP): 11 s | Time to clot (fibrin [1]; 1 mM GPRP): 13 s | Time to clot (fibrin [1]; 1.5 mM GPRP): 22 s | Time to clot (fibrin [1]; 2 mM GPRP): 28 s | Time to clot (fibrin [1]; 3 mM GPRP): 150 s | Time to clot (fibrin [1]; 4 mM GPRP): 480 s | Time to clot (fibrin [1]; 5 mM GPRP): 900 s | time for which no polymerization was observed (fibrin [2]): > 14 days
Compound: Gly-Pro-Arg-Pro [GPRP]

Compound: [Ca+2].[Cl-].[Cl-] [CaCl2, calcium chloride]
clotting time (fibrin clot formation): < 20 s
